Laboratory results reported in the supplement of paper PMC11061612.

Key:
Assay in all cases: combination Emax (second highest fraction inhibited in the dose matrix, 72 h); higher = more inhibition; extreme values may be limits of the assay
[1] = system: CAL-148 (Breast Carcinoma)
Outline: (§1)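 Cell lines grown in DMEM/F12 or RPMI with 10% FBS were plated in 1536-well plates and held 24 hours at 37°C, 5% CO2 before 72 hours of exposure to two-drug dose matrices, with DMSO typically at 0.2%. CellTiter-Glo 2.0 luminescence gave viability, which was converted to inhibition. Vehicle wells were set to 0 and blank wells to 1. Combination Emax is the second-highest inhibition in the matrix, and Bliss excess is the observed combination effect minus the expected EA + EB − EA·EB, where EA and EB are the single-agent effects.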

[2] = system: ME-1 (Acute Myeloid Leukemia)
Outline: as §1

[3] = system: KELLY (Neuroblastoma)
Outline: as §1

[4] = system: NOS-1 (Osteosarcoma)
Outline: as §1

[5] = system: HOS (Osteosarcoma)
Outline: as §1

[6] = system: LU-135 (Small Cell Lung Carcinoma)
Outline: as §1

[7] = system: KYSE-520 (Esophageal Squamous Cell Carcinoma)
Outline: as §1

[8] = system: SK-ES-1 (Ewing's Sarcoma)
Outline: as §1

[9] = system: B-CPAP (Thyroid Gland Carcinoma)
Outline: as §1

[10] = system: LNCaP-Clone-FGC (Prostate Carcinoma)
Outline: as §1

[11] = system: COLO-205 (Colorectal Carcinoma)
Outline: as §1

[12] = system: OVCA420 (Ovarian Carcinoma)
Outline: as §1

[13] = system: Ramos-2G6-4C10 (Burkitt's Lymphoma)
Outline: as §1

[14] = system: NB10 (Neuroblastoma)
Outline: as §1

[15] = system: RO82-W-1 (Thyroid Gland Carcinoma)
Outline: as §1

[16] = system: KURAMOCHI (Ovarian Carcinoma)
Outline: as §1

[17] = system: HCC1806 (Breast Carcinoma)
Outline: as §1

[18] = system: DoTc2-4510 (Cervical Carcinoma)
Outline: as §1

[19] = system: LS-180 (Colorectal Carcinoma)
Outline: as §1

[20] = system: Calu-3 (Lung Adenocarcinoma)
Outline: as §1

SMILES	combination Emax [1]	combination Emax [2]	combination Emax [3]	combination Emax [4]	combination Emax [5]	combination Emax [6]	combination Emax [7]	combination Emax [8]	combination Emax [9]	combination Emax [10]	combination Emax [11]	combination Emax [12]	combination Emax [13]	combination Emax [14]	combination Emax [15]	combination Emax [16]	combination Emax [17]	combination Emax [18]	combination Emax [19]	combination Emax [20]
C=CCn1c(=O)c2cnc(Nc3ccc(N4CCN(C)CC4)cc3)nc2n1-c1cccc(C(C)(C)O)n1 [AZD1775] + C[C@@H]1COCCN1C2=NC(=NC(=C2)C3(CC3)[S@](=N)(=O)C)C4=C5C=CNC5=NC=C4 [AZD6738] (first compound max 1 µM, partner max 10 µM)	1	0.51	1	0.622	0.911	0.751	0.661	0.926	0.811	0.787	0.863	0.518	1	0.879	0.445	0.743	0.961	0.751	0.809	0.301
CC1(C)CCC(CN2CCN(c3ccc(C(=O)NS(=O)(=O)c4ccc(NCC5CCOCC5)c([N+](=O)[O-])c4)c(Oc4cnc5[nH]ccc5c4)c3)CC2)=C(c2ccc(Cl)cc2)C1 [Venetoclax] + C1CN(CCC1(C(=O)N[C@@H](CCO)C2=CC=C(C=C2)Cl)N)C3=NC=NC4=C3C=CN4 [Capivasertib] (first compound max 1 µM, 7x7, partner max 3 µM)	0.966	1	0.998	0.171	0.281	0.317	0.467	0.469	0.177	0.916	0.237	0.146	0.173	0.139	0.251	0.536	0.231	0.245	0.287	0.174
CN(C)CCCOc1ccc(-c2ccc3ncc4c(c3c2)n(C2CCOCC2)c(=O)n4C)cn1 [AZD0156] + O=C(c1cc(Cc2n[nH]c(=O)c3ccccc23)ccc1F)N1CCN(C(=O)C2CC2)CC1 [Olaparib] (first compound max 3 µM, partner max 3 µM)	0.604	0.224	0.607	0.328	0.241	0.426	0.324	0.804	0.34	0.639	0.365	0.23	0.745	0.593	0.313	0.152	0.479	0.206	0.24	0.184
CC1(C)CCC(CN2CCN(c3ccc(C(=O)NS(=O)(=O)c4ccc(NCC5CCOCC5)c([N+](=O)[O-])c4)c(Oc4cnc5[nH]ccc5c4)c3)CC2)=C(c2ccc(Cl)cc2)C1 [Venetoclax] + Cc1cc2ncnn2cc1Nc1ncc2c(n1)n(C1CCOCC1)c(=O)n2C [AZD7648] (first compound max 1 µM, 7x7, partner max 10 µM)	0.447	1	0.989	0.244	0.204	0.386	0.34	0.465	0.281	0.423	0.213	0.223	0.289	0.246	0.224	0.477	0.172	0.23	0.275	0.155
COc1cc2c(cc1OCCCCCOc1cc3c(cc1OC)C(=O)N1C=C(C)C[C@H]1C=N3)N=C[C@@H]1CC(C)=CN1C2=O [SG3199] + O=C(c1cc(Cc2n[nH]c(=O)c3ccccc23)ccc1F)N1CCN(C(=O)C2CC2)CC1 [Olaparib] (first compound max 0.001 µM, 7x7, partner max 10 µM)	0.211	0.163	0.375	0.155	0.105	0.354	0.133	0.917	0.217	0.416	0.0813	0.0795	0	0.348	0.17	0.129	0.212	0.321	0.181	0.0759
COc1cccc(OCCCN)c1-c1cc(Nc2cnc(C#N)cn2)n[nH]1 [Prexasertib] + CN(C)CCCOc1ccc(-c2ccc3ncc4c(c3c2)n(C2CCOCC2)c(=O)n4C)cn1 [AZD0156] (first compound max 1 µM, 7x7, partner max 1 µM)	0.642	0.622	1	0.332	0.854	0.554	0.725	0.948	0.686	0.827	0.673	0.676	1	0.928	0.572	0.706	0.967	0.89	0.789	0.409
Cc1cc2ncnn2cc1Nc1ncc2c(n1)n(C1CCOCC1)c(=O)n2C [AZD7648] + O=C(c1cc(Cc2n[nH]c(=O)c3ccccc23)ccc1F)N1CCN(C(=O)C2CC2)CC1 [Olaparib] (first compound max 10 µM, 7x7, partner max 10 µM)	0.255	0.172	0.362	0.0915	0.195	0.394	0.234	0.923	0.265	0.533	0.0328	0.0465	0.169	0.426	0.251	0.16	0.142	0.277	0.338	0.0691
Cc1cc2ncnn2cc1Nc1ncc2c(n1)n(C1CCOCC1)c(=O)n2C [AZD7648] + CCN(CCO)CCCOc1ccc2c(Nc3cc(CC(=O)Nc4cccc(F)c4)[nH]n3)ncnc2c1 [AZD2811] (first compound max 10 µM, 7x7, partner max 1 µM)	0.911	0.27	0.692	0.232	0.273	0.893	0.337	0.964	0.283	0.535	0.897	0.232	0.789	0.335	0.358	0.238	0.281	0.301	0.388	0.235
COc1cccc(OCCCN)c1-c1cc(Nc2cnc(C#N)cn2)n[nH]1 [Prexasertib] + Cc1cc2ncnn2cc1Nc1ncc2c(n1)n(C1CCOCC1)c(=O)n2C [AZD7648] (first compound max 1 µM, 7x7, partner max 10 µM)	0.734	0.622	1	0.321	0.826	0.584	0.728	0.964	0.73	0.83	0.675	0.699	1	0.918	0.45	0.672	0.978	0.86	0.789	0.416
NC1(C(=O)N[C@@H](CCO)c2ccc(Cl)cc2)CCN(c2ncnc3[nH]ccc23)CC1 [Capivasertib] + C[C@@H]1COCCN1C2=NC(=NC(=C2)C3(CC3)[S@](=N)(=O)C)C4=C5C=CNC5=NC=C4 [AZD6738] (first compound max 10 µM, 7x7, partner max 10 µM)	0.986	0.277	0.962	0.68	0.844	0.793	0.678	0.876	0.719	0.989	0.637	0.516	0.922	0.811	0.215	0.535	0.947	0.45	0.825	0.512
CN(CCO)CC[C@H](CSc1ccccc1)Nc1ccc(S(=O)(=O)NC(=O)c2ccc(N3CCC([C@@H](O)c4ccccc4-c4ccc(Cl)cc4)CC3)cc2)cc1S(=O)(=O)C(F)(F)F [AZD4320] + Cc1cc2ncnn2cc1Nc1ncc2c(n1)n(C1CCOCC1)c(=O)n2C [AZD7648] (first compound max 1 µM, 7x7, partner max 10 µM)	0.744	1	0.493	0.753	0.134	1	0.23	0.911	0.408	0.415	0.669	0.157	0.718	0.172	0.395	0.161	0.0765	0.499	0.234	0.182
CN(C)CCCOc1ccc(-c2ccc3ncc4c(c3c2)n(C2CCOCC2)c(=O)n4C)cn1 [AZD0156] + CCN(CCO)CCCOc1ccc2c(Nc3cc(CC(=O)Nc4cccc(F)c4)[nH]n3)ncnc2c1 [AZD2811] (first compound max 1 µM, 7x7, partner max 1 µM)	0.935	0.2	0.684	0.119	0.0916	0.925	0.224	0.952	0.189	0.556	0.854	0.0163	0.528	0.315	0.308	0.115	0.124	0.186	0.261	0.061
Cn1cnc2c(F)c(Nc3ccc(Br)cc3Cl)c(C(=O)NOCCO)cc21 [Selumetinib] + C=CCn1c(=O)c2cnc(Nc3ccc(N4CCN(C)CC4)cc3)nc2n1-c1cccc(C(C)(C)O)n1 [AZD1775] (first compound max 10 µM, partner max 1 µM)	0.849	0.484	1	0.818	0.222	0.583	0.595	0.944	0.472	0.625	0.85	0.508	0.997	0.712	0.183	0.65	0.919	0.251	0.604	0.143
